Values quoted from earlier work in article PMC8583936, “Machine Learning Assisted Approach for Finding Novel High Activity Agonists of Human Ectopic Olfactory Receptors” (International Journal of Molecular Sciences, 2021).
Read-outs that look alike come from different tables or passages of the source.

Assays:
[1] = target: T1, OR1A1 (Homo sapiens, UniProt Q9P1Q5); conditions: cited from earlier work
T1 sequence (Q9P1Q5 1-309): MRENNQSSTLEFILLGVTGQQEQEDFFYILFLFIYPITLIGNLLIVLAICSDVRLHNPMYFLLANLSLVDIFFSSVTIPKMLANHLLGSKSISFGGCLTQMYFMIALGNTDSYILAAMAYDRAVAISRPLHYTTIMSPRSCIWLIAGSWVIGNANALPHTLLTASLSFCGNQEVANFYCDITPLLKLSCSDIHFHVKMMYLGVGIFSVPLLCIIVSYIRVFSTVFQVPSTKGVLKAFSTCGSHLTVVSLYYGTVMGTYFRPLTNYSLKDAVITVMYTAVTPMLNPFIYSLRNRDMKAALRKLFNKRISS

[2] = target: T2, OR2W1 (Homo sapiens, UniProt Q9Y3N9); conditions: cited from earlier work
T2 sequence (Q9Y3N9 1-320): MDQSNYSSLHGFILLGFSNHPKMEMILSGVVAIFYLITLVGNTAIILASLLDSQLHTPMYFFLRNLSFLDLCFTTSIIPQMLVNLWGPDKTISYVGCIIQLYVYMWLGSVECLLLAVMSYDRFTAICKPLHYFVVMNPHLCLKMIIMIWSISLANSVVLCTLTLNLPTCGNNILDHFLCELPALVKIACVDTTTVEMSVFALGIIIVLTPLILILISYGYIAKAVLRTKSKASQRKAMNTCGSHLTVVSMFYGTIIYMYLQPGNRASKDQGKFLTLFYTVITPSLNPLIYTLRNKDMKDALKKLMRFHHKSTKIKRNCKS

[3] = Table S1, ref Supplement references [1]-[9] as printed after each odorant name
[4] = Table S2, ref Supplement references [2]-[12] as printed after each odorant name

Row | SMILES | Class (agonist / non-agonist / conflicting info.) for OR1A1 [1, 3] | Class (agonist / non-agonist / antagonist / conflicting info.) for OR2W1 [2, 4] | Class (agonist / non-agonist / conflicting info.) for OR1A1 [1] | Class (agonist / non-agonist / antagonist / conflicting info.) for OR2W1 [2]
1 | CCCC(=O)C(C)CC (centres unmarked) [3-Methylheptan-4-one] | Non-agonist | Non-agonist |  | 
2 | CCCCCCO [Hexanol] | Non-agonist | Conflicting info. |  | 
3 | CC(=O)O [Acetic acid] | Non-agonist | Non-agonist |  | 
4 | CCC/C=C/C=O [2-hexenal, (2e)-] | Non-agonist | Non-agonist |  | 
5 | C/C=C/c1ccc(OC)cc1 [Trans-anethole] | Agonist | Agonist |  | 
6 | CCC1OC(C)=C(O)C1=O (centres unmarked) [Homofuraneol] | Non-agonist | Non-agonist |  | 
7 | CC(=O)/C=C/C1=C(C)CCCC1(C)C [Β-ionone] | Non-agonist | Non-agonist |  | 
8 | COC(=O)c1ccccc1O [Methyl salicylate] | Conflicting info. | Agonist |  | 
9 | C/C=C/C(=O)C1=C(C)C=CCC1(C)C [Damascenone] | Non-agonist | Non-agonist |  | 
10 | SCc1cccs1 [Thenyl mercaptan] | Non-agonist | Non-agonist |  | 
11 | SCc1ccco1 [Furfurylthiol] | Non-agonist | Non-agonist |  | 
12 | CSSCc1ccco1 [Methyl furfuryl disulfide] | Conflicting info. | Non-agonist |  | 
13 | Cc1c[nH]c2ccccc12 [3-Methyl-1H-indole] | Non-agonist | Non-agonist |  | 
14 | CCCCCC[C@@H](C)O [(R)-(-)-2-octanol] | Non-agonist | Non-agonist |  | 
15 | O=C(O)CCCCCCCC(=O)O [Nonanedioic acid] | Non-agonist | Non-agonist |  | 
16 | CCCCCCCC(=O)OCC [Ethyl octanoate] |  |  | Non-agonist | Non-agonist
17 | CSCCC=O [Methional] | Non-agonist | Non-agonist |  | 
18 | CCC(=O)C1=NCCC1 [2-propionylpyrroline] | Non-agonist | Non-agonist |  | 
19 | CC(=O)c1ccc(C)cc1 [4-Methyl acetophenone] | Non-agonist | Agonist |  | 
20 | Cc1occc1S [2-Methyl-3-furanthiol] | Non-agonist | Non-agonist |  | 
21 | Cc1ccc(O)c(C)c1 [2,4-dimethylphenol] |  |  | Non-agonist | Non-agonist
22 | C=CC(O)CCCCC (racemic) [(R/S)-octen-3-ol] | Agonist | Agonist |  | 
23 | CCCCCCCCCCCO [1-undecanol] | Non-agonist | Non-agonist |  | 

Row | SMILES | Class (agonist / non-agonist / conflicting info.) for OR1A1 [1, 3] | Class (agonist / non-agonist / antagonist / conflicting info.) for OR2W1 [2, 4] | Class (agonist / non-agonist / conflicting info.) for OR1A1 [1] | Class (agonist / non-agonist / antagonist / conflicting info.) for OR2W1 [2]
24 | OCCc1ccccc1 [2-phenylethanol] | Non-agonist | Non-agonist |  | 
25 | COc1nccnc1CC(C)C [2-isobutyl-3-methoxypyrazine] | Non-agonist | Non-agonist |  | 
26 | CCCc1ccc(O)c(OC)c1 [2-methoxy-4-propylphenol] |  |  | Non-agonist | Non-agonist
27 | CCCCCCC1CCC(=O)O1 (centres unmarked) [5-Hexyloxolan-2-one] | Non-agonist | Non-agonist |  | 
28 | CCC(C)CO (centres unmarked) [2-methyl-1-butanol] |  |  | Non-agonist | Non-agonist
29 | O=C(O)C=Cc1ccc(O)cc1 [P-Coumaric acid] | Non-agonist | Non-agonist |  | 
30 | CCCCCCCO [Heptanol] | Conflicting info. | Agonist |  | 
31 | C=C1CCC2CC1C2(C)C (single isomer, unassigned; (-)) [(-)-beta-Pinene] | Non-agonist | Non-agonist |  | 
32 | CC1=NC(C)SC1C (centres unmarked) [2,4,5-trimethyl-2,5-dihydro-1,3-thiazole] | Non-agonist | Antagonist |  | 
33 | C/C=C/C(=O)C1=C(C)CCCC1(C)C [Beta-damascone] | Conflicting info. | Non-agonist |  | 
34 | CCCCC/C=C\CCC=O [Z-4-decenal] | Conflicting info. | Non-agonist |  | 
35 | CC(=O)CC(C)(C)S [4-Mercapto-4-methyl-2-pentanone] | Non-agonist | Non-agonist |  | 
36 | C=C(C)[C@@H]1CC[C@@H](C)C(=O)C1 [(+)-Dihydrocarvone] | Agonist | Agonist |  | 
37 | CCCSSSC [Methyl propyl trisulfide] | Non-agonist | Non-agonist |  | 
38 | CC(C)=C1CC[C@@H](C)CC1=O [(+)-Pulegone] |  |  | Non-agonist | Non-agonist
39 | CSCCCO [Methionol] | Non-agonist | Non-agonist |  | 
40 | COc1cc(C(=O)O)ccc1O [Vanillic acid] | Non-agonist | Non-agonist |  | 
41 | CC1=CCC(C(C)(C)O)CC1 (centres unmarked) [Terpineol] | Conflicting info. | Conflicting info. |  | 
42 | Cc1cccc(O)c1 [3-methylphenol] |  |  | Non-agonist | Non-agonist
43 | CC(=O)c1ccccc1 [Acetophenone] |  |  | Non-agonist | Agonist
44 | CC12CCC(CC1=O)C2(C)C (stereo not drawn) [(+)-Camphor] | Non-agonist | Non-agonist |  | 
45 | C=C1CC[C@]2(C(C)C)C[C@H]12 [(+)-Sabinene] | Non-agonist | Non-agonist |  | 
46 | O=c1ccc2ccccc2o1 [Coumarin] | Non-agonist | Conflicting info. |  | 
